Legend:
EAE model = details: prior art patents; cited from earlier work
[1] = tested on: collagen-induced arthritis (CIA) model; details: prior art patents; cited from earlier work
[2] = tested on: mAB/LPS-induced arthritic mice; test: mAb/LPS-induced arthritis in mice, hind paw thickness; format: in vivo; details: for Mean group values of hind paw thickness, day 0: day 0 (base-line); for Mean group values of hind paw thickness, day 0 / Mean group values of hind paw thickness, day 7 / Mean group values of hind paw thickness, day 9 / Mean group values of hind paw thickness, day 11: once daily (day 0-5) repeated subcutaneous administration; for Hind paw thickness vs vehicle control (corn oil): comparison with vehicle control (corn oil)
From the text: Collagen-induced arthritis (CIA) in mice is widely used as an experimental model for rheumatoid arthritis (RA) in humans. CIA is mediated by autoantibodies which bind to a particular region of type II collagen, such as CB11 (CNBr-digested fragment of type II collagen).
Antibody-mediated CIA can be induced by iv injection of a combination of 4 different monoclonal antibodies (Arthrogen-CIA® mAb) generated by Arthrogen-CIA® mouse B-hybridoma cell lines.
Three of the mAbs recognize autoantigenic epitopes clustered within an 84 amino acid residue fragment, LyC2 (the smallest arthritogenic fragment of type II collagen) of CB11 and the fourth mAb reacts with LyC1 (FIG. 1). Importantly, all 4 mAbs recognize the conserved epitopes shared by various species of type II collagen and crossreact with homologous and heterologous type II collagen.
A cocktail of 4 monoclonal antibodies are used. These arthritogenic mAbs alone or in combination with bacterial LPS can induce severe arthritis within days instead of weeks (classic CIA model).
(A) A cocktail of 4 monoclonal antibodies to type II collagen (2 mg) is injected intravenously on day 0 followed by an intraperitoneal injection of LPS (50 μg) on day 3. Arthritis will develop on day 4 and reach its peak on day 7-8. The therapeutic effects of test compounds will be determined on day 7. […] formation and bone degradation will be more significant on day 14 and day 21 (not shown). (B) Authentic collagen-induced arthritis.
Measurement of arthritis. Hind paw thickness, left and right of each animal (9 animals in each group) was measured in mm on study days 0 (base-line), 7, 9 and 11 using a Mitutoyo Electronic Digital Caliper. […] Dexamethasone is a cortisone which suppresses inflammation and normal immune response, and is used systemically and locally to treat inflammatory disorders. Patients are for safety reasons treated with short courses of cortisones to bring the inflammation under control in the window between starting the DMARD or DMARD combination and the likely response time.
FIG. 3. Mean group values (mm) of hind paw thickness measured throughout the entire 11-day observation period in the mAB/LPS-induced arthritic mice following once daily (day 0-5) repeated subcutaneous administration of B-220 analogues, Dexamethasone (positive control) or corn oil (negative control).

Row | Compound | treating MS in the EAE model (EAE model) | treating RA in the collagen-induced arthritis (CIA) model [1] | Mean group values of hind paw thickness, day 0 [2] [mm] | Mean group values of hind paw thickness, day 7 [2] [mm] | Mean group values of hind paw thickness, day 9 [2] [mm] | Mean group values of hind paw thickness, day 11 [2] [mm] | melting point [°C] | Hind paw thickness vs vehicle control (corn oil) [2]
1 | Cc1cc2nc3c4ccccc4n(CCN(C)C)c3nc2cc1C [Compound B-220, 2,3-dimethyl-6-(N,N-dimethylaminoethyl)-6H-indolo(2,3-b)quinoxaline, reference compound] | promising compound | promising compound | 2.2 | 3.1 | 3.0 | 2.8 |  | 
2 | Cc1cc2nc3c4cc(F)ccc4n(CC(N)=O)c3nc2cc1C [Compound C, 2,3-Dimethyl-9-fluoro-indolo[2,3-b]quinoxaline-6-yl-acetamide] |  |  | 2.2 | 3.1 | 3.0 | 2.8 | 316 to 319 | 
3 | Cc1cc2nc3c4cc(Cl)ccc4n(CC(=O)NCCN(C)C)c3nc2cc1C [Compound E, 9-Chloro-2,3-dimethyl-6-(N,N-dimethylaminoethylamino-2-oxoethyl)-6H-indolo-[2,3-b]quinoxaline] |  |  | 2.2 | 2.3 | 2.3 | 2.3 |  | highly significant lower
4 | Cc1cc2nc3c4cc(F)ccc4n(CC(=O)NCCN)c3nc2cc1C [Compound H, 2,3-Dimethyl-6-(aminoethylamino-2-oxoethyl)-9-fluoro-6H-indolo[2,3-b]quinoxaline] |  |  | 2.2 | 2.5 | 2.5 | 2.5 | 269 to 271 | highly significant lower
5 | Cc1cc2nc3c4cc(Cl)ccc4n(CC(=O)O)c3nc2cc1C [Compound K, 2,3-Dimethyl-9-chloro-indolo[2,3-b]quinoxaline-6-yl acetic acid] |  |  |  |  |  |  | 331 to 332 | 
6 | Cc1cc2nc3c4cc(F)ccc4n(CC(=O)O)c3nc2cc1C [Compound L, 2,3-dimethyl-9-fluoro-indolo[2,3-b]quinoxaline-6-yl-acetic acid] |  |  |  |  |  |  | 317 to 318 | 
7 | C[C@@H]1C[C@H]2[C@@H]3CCC4=CC(=O)C=C[C@]4(C)[C@@]3(F)[C@@H](O)C[C@]2(C)[C@@]1(O)C(=O)CO [Dexamethasone, reference compound] |  |  | 2.2 | 2.3 | 2.3 | 2.3 |  | 

Reference: US8084453B2, “Alkyl substituted indoloquinoxalines” (Oxypharma AB, priority 2004, dated 2011)
